Experimental data as given in patent publication US12448392B2, “Spiropiperidine derivatives” (89BIO LTD, priority 2016, dated 2025).
Counter-ions that a name gives are not always drawn.

Molecular target: T1, recombinant human baculovirus-expressed GST-tagged FASN (Homo sapiens, UniProt P49327)
T1 construct: GST
Assay: biochemical
Conditions: not given

T1 sequence (P49327 whole entry): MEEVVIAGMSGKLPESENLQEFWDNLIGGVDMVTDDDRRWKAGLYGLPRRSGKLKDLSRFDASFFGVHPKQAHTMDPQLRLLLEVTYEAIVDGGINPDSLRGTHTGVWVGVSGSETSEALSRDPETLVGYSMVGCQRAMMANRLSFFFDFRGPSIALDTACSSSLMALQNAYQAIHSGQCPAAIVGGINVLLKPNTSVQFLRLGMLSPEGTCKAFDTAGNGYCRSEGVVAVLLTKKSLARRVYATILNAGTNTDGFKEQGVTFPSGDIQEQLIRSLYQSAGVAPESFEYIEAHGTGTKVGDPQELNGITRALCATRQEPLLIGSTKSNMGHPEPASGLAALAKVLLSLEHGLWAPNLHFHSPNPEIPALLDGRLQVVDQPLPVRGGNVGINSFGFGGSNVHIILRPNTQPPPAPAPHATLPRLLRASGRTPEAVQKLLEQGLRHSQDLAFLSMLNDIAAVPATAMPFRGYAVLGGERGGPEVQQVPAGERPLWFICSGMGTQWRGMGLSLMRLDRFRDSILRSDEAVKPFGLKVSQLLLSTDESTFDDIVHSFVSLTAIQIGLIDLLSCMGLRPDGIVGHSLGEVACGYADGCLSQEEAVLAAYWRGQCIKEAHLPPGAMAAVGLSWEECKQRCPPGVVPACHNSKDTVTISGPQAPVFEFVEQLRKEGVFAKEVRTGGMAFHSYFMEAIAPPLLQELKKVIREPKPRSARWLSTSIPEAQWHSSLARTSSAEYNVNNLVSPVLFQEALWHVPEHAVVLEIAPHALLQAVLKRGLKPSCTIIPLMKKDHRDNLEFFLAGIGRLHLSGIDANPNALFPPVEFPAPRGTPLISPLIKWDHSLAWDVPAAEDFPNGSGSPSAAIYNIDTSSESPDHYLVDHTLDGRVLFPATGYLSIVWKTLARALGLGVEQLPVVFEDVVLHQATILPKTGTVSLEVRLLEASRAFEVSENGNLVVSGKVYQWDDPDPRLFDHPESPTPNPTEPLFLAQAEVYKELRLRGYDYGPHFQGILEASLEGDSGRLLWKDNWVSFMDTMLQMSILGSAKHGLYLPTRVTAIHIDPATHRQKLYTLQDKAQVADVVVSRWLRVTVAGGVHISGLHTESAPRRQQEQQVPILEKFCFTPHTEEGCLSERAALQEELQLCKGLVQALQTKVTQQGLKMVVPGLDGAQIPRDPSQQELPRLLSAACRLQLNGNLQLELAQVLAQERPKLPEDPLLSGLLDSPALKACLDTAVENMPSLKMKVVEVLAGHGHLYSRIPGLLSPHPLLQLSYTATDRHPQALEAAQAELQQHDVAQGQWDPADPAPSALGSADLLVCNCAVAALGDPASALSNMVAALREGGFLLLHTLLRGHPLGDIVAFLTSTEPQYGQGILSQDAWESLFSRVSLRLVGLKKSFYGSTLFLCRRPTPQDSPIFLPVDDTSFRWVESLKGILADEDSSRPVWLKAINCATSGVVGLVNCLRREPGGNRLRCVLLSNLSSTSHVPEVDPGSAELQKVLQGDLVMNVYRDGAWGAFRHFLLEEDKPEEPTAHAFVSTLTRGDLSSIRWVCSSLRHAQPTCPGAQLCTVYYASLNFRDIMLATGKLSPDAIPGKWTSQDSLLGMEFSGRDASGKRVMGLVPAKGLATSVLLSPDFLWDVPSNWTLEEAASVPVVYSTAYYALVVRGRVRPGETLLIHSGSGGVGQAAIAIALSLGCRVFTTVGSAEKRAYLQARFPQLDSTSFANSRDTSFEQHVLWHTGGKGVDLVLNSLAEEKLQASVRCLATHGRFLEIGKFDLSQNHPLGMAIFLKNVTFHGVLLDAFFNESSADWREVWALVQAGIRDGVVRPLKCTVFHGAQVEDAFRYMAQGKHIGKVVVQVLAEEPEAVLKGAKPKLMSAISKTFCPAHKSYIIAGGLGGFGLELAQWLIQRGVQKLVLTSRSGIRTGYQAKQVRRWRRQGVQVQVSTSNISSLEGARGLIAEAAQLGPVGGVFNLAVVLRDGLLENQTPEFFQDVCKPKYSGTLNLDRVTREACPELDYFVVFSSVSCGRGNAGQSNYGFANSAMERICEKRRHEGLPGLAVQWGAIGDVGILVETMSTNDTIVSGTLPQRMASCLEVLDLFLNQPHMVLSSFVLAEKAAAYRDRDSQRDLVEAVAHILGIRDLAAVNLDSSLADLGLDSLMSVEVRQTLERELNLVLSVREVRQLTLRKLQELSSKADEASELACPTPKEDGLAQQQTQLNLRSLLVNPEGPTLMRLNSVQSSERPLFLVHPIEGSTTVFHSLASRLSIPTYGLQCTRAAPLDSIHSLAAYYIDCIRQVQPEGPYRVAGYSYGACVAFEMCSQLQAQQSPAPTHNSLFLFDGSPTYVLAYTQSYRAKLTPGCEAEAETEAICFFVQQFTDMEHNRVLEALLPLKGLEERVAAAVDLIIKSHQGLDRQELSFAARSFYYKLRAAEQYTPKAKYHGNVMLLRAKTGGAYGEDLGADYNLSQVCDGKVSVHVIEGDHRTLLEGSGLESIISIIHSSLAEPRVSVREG

Question: Which IC50 does the source give for `COc1cc(-c2ccc3cccnc3c2C)cc2c1OC1(CCN(C(N)=O)CC1)OC2` [Example 247, 8-Methoxy-6-(8-methyl-7-quinolyl)spiro[4H-1,3-benzodioxine-2,4′-piperidine]-1′-carboxamide] here?
Answer: The IC50 was 1000 to 10000 nM.

Question: Which IC50 does the source give for `O=C(NOC1CCCCO1)N1CCC2(CC1)OCc1cc(-c3cc4ccccc4cn3)ccc1O2` (stereo not drawn) [Example 144, 6-(3-Isoquinolyl)-N-tetrahydropyran-2-yloxy-spiro[4H-1,3-benzodioxine-2,4′-piperidine]-1′-carboxamide] here?
Answer: The IC50 was 100 to 999 nM.

Question: For `CCONC(=O)N1CCC2(CC1)OCc1cc(-c3ccc4ccnn4c3C)ccc1O2` [Example 129, N-Ethoxy-6-(7-methylpyrazolo[1,5-a]pyridin-6-yl)spiro[4H-1,3-benzodioxine-2,4′-piperidine]-1′-carboxamide], which IC50 is on record?
Answer: Its IC50 is 1 to 99 nM.

Question: Which IC50 does the source give for `Cc1c(-c2ccc3c(c2)COC2(CCN(C(=O)[C@H]4CCCO4)CC2)O3)ccc2cccnc12` [Example 50, [6-(8-Methyl-7-quinolyl)spiro[4H-1,3-benzodioxine-2,4′-piperidine]-1′-yl]-[(2R)-tetrahydrofuran-2-yl]methanone] here?
Answer: Its IC50 is 1 to 99 nM.

Question: How did the IC50 turn out when `CCNC(=O)N1CCC2(CC1)OCCc1cc(-c3ccc4cccnc4c3C)ccc1O2` [Example 78, N-Ethyl-7-(8-methyl-7-quinolyl)spiro[4,5-dihydro-1,3-benzodioxepine-2,4′-piperidine]-1′-carboxamide] was run?
Answer: The IC50 was 100 to 999 nM.

Question: How did the IC50 turn out when `O=C([C@H]1CCCO1)N1CCC2(CC1)OCc1cc(-c3cccnc3)ccc1O2` [Example 229, [6-(3-Pyridyl)spiro[4H-1,3-benzodioxine-2,4′-piperidine]-1′-yl]-[(2R)-tetrahydrofuran-2-yl]methanone] was run?
Answer: The IC50 was 100 to 999 nM.

Question: Which IC50 does the source give for `CCC(=O)N1CCC2(CC1)OCc1cc(-c3ccc4c(C)nccc4c3)ccc1O2` [Example 21, 1-[6-(1-Methyl-6-isoquinolyl)spiro[4H-1,3-benzodioxine-2,4′-piperidine]-1′-yl]propan-1-one] here?
Answer: Its IC50 is 1 to 99 nM.

Question: With `COc1c(-c2ccc3c(c2)COC2(CCN(C(=O)C4CC4)CC2)O3)ccc2cccnc12` [Example 49, Cyclopropyl-[6-(8-methoxy-7-quinolyl)spiro[4H-1,3-benzodioxine-2,4′-piperidine]-1′-yl]methanone] as the molecule, how does the IC50 read?
Answer: Its IC50 is 1 to 99 nM.

Question: For `Cn1cnc2cc(-c3ccc4c(c3)COC3(CCN(C(N)=O)CC3)O4)ccc21` [Example 82, 6-(1-Methylbenzimidazol-5-yl)spiro[4H-1,3-benzodioxine-2,4′-piperidine]-1′-carboxamide], which IC50 is on record?
Answer: The IC50 was 100 to 999 nM.

Question: With `O=C(C1CC1)N1CCC2(CC1)OCc1cc(-c3ccc4cccnc4c3)ccc1O2` [Example 32, Cyclopropyl-[6-(7-quinolyl)spiro[4H-1,3-benzodioxine-2,4′-piperidine]-1′-yl]methanone] as the molecule, how does the IC50 read?
Answer: Its IC50 is 1 to 99 nM.

Question: How did the IC50 turn out when `NC(=O)N1CCC2(CC1)OCc1cc(-c3cnc4sccc4c3)ccc1O2` [Example 89, 6-thieno[2,3-b]pyridin-5-ylspiro[4H-1,3-benzodioxine-2,4′-piperidine]-1′-carboxamide] was run?
Answer: The IC50 was 1000 to 10000 nM.

Question: Which IC50 does the source give for `CC(C)C(=O)N1CCC2(CC1)OCc1cc(-c3ccc4cccnc4c3)ccc1O2` [Example 31, 2-Methyl-1-[6-(7-quinolyl)spiro[4H-1,3-benzodioxine-2,4′-piperidine]-1′-yl]propan-1-one] here?
Answer: The IC50 was 1 to 99 nM.

Question: How did the IC50 turn out when `Cc1cc2cc(-c3ccc4c(c3)COC3(CCN(C(=O)NO)CC3)O4)ccc2cn1` [Example 204, 6-(3-Methyl-6-isoquinolyl)spiro[4H-1,3-benzodioxine-2,4′-piperidine]-1′-carbohydroxamic acid] was run?
Answer: The IC50 was 100 to 999 nM.

Question: Which IC50 does the source give for `CCC(=O)N1CCC2(CC1)OCc1cc(-c3ccc4cccnc4c3Cl)ccc1O2` [Example 57, 1-[6-(8-Chloro-7-quinolyl)spiro[4H-1,3-benzodioxine-2,4′-piperidine]-1′-yl]propan-1-one] here?
Answer: Its IC50 is 1 to 99 nM.

Question: How did the IC50 turn out when `O=C([C@H]1CCCO1)N1CCC2(CC1)OCc1cc(-c3cnc4ccccc4c3)ccc1O2` [Example 48, [6-(3-Quinolyl)spiro[4H-1,3-benzodioxine-2,4′-piperidine]-1′-yl]-[(2R)-tetrahydrofuran-2-yl]methanone] was run?
Answer: Its IC50 is 1 to 99 nM.

Same assay, conditions: 5 nM FASN, 150 μM NADPH, 10 μM acetyl-CoA, 25 μM malonyl-CoA, 90 minutes incubation; read-out: IC50 data for Compounds of Formula I, Activity

Question: For `CONC(=O)N1CCC2(CC1)Cc1cc(-c3ccc4cccnc4c3C)ccc1O2` [Example 153, N-Methoxy-5-(8-methyl-7-quinolyl)spiro[3H-benzofuran-2,4′-piperidine]-1′-carboxamide], which IC50 is on record?
Answer: Its IC50 is 1000 to 10000 nM.

Question: How did the IC50 turn out when `CCONC(=O)N1CCC2(CCc3cc(-c4ccc5cccnc5c4OC)ccc3O2)CC1` [Example 211, N-Ethoxy-6-(8-methoxy-7-quinolyl)spiro[chromane-2,4′-piperidine]-1′-carboxamide] was run?
Answer: The IC50 was 1 to 99 nM.

Question: Which IC50 does the source give for `CONC(=O)N1CCC2(CCc3cc(-c4ccc5cccnc5c4OC)ccc3O2)CC1` [Example 210, N-Methoxy-6-(8-methoxy-7-quinolyl)spiro[chromane-2,4′-piperidine]-1′-carboxamide] here?
Answer: The IC50 was 1 to 99 nM.

Question: How did the IC50 turn out when `CCONC(=O)N1CCC2(CC1)Cc1cc(-c3ccc4cccnc4c3OC)ccc1O2` [Example 167, N-Ethoxy-5-(8-methoxy-7-quinolyl)spiro[3H-benzofuran-2,4′-piperidine]-1′-carboxamide] was run?
Answer: The IC50 was 1000 to 10000 nM.

Question: `O=C(CO)N1CCC2(CCc3cc(-c4ccc5cccnc5c4Cl)ccc3O2)CC1` [Example 67, 1-[6-(8-chloro-7-quinolyl)spiro[chromane-2,4′-piperidine]-1′-yl]-2-hydroxy-ethanone] was tested. Which IC50 did it give?
Answer: Its IC50 is 1000 to 10000 nM.

Question: For `NC(=O)N1CCC2(CCc3cc(-c4ccc5scnc5c4)ccc3O2)CC1` [Example 83, 6-(1,3-Benzothiazol-5-yl)spiro[chromane-2,4′-piperidine]-1′-carboxamide], which IC50 is on record?
Answer: The IC50 was 100 to 999 nM.

Question: With `CCONC(=O)N1CCC2(CCc3cc(-c4ccc5c(C)nccc5c4)ccc3O2)CC1` [Example 185, N-ethoxy-6-(1-methyl-6-isoquinolyl)spiro[chromane-2,4′-piperidine]-1′-carboxamide] as the molecule, how does the IC50 read?
Answer: The IC50 was 1 to 99 nM.

Question: How did the IC50 turn out when `Cc1c(-c2ccc3c(c2)CCC2(CCN(C(=O)[C@H]4CCCO4)CC2)O3)ccc2nccn12` [Example 28, [6-(5-Methylimidazo[1,2-a]pyridin-6-yl)spiro[chromane-2,4′-piperidine]-1′-yl]-[(2R)-tetrahydrofuran-2-yl]methanone] was run?
Answer: The IC50 was 1 to 99 nM.

Question: `CCNC(=O)N1CCC2(CCc3cc(-c4ccc5cnc(C)cc5c4)ccc3O2)CC1` [Example 208, N-Ethyl-6-(3-methyl-6-isoquinolyl)spiro[chromane-2,4′-piperidine]-1′-carboxamide] was tested. Which IC50 did it give?
Answer: Its IC50 is 100 to 999 nM.

Question: Which IC50 does the source give for `Cc1nccc2cc(-c3ccc4c(c3)CCC3(CCN(C(=O)NO)CC3)O4)ccc12` [Example 189, 6-(1-Methyl-6-isoquinolyl)spiro[chromane-2,4′-piperidine]-1′-carbohydroxamic acid] here?
Answer: Its IC50 is 1000 to 10000 nM.

Question: With `Cc1c(-c2ccc3c(c2)CC2(CCN(C(=O)NO)CC2)O3)ccc2cccnc12` [Example 155, 5-(8-Methyl-7-quinolyl)spiro[3H-benzofuran-2,4′-piperidine]-1′-carbohydroxamic acid] as the molecule, how does the IC50 read?
Answer: Its IC50 is 1000 to 10000 nM.

Question: How did the IC50 turn out when `NC(=O)N1CCC2(CCc3cc(-c4ccc5ocnc5c4)ccc3O2)CC1` [Example 86, 6-(1,3-Benzoxazol-5-yl)spiro[chromane-2,4′-piperidine]-1′-carboxamide] was run?
Answer: Its IC50 is 1000 to 10000 nM.

Question: With `Cc1c(-c2ccc3c(c2)CCC2(CCN(C(=O)NC(C)C)CC2)O3)ccc2ccnn12` [Example 113, N-Isopropyl-6-(7-methylpyrazolo[1,5-a]pyridin-6-yl)spiro[chromane-2,4′-piperidine]-1′-carboxamide] as the molecule, how does the IC50 read?
Answer: Its IC50 is 100 to 999 nM.

Question: `O=C(C1CC1)N1CCC2(C=Cc3cc(-c4cnc5ccccc5c4)ccc3O2)CC1` [Example 44, Cyclopropyl-[6-(3-quinolyl)spiro[chromene-2,4′-piperidine]-1′-yl]methanone] was tested. Which IC50 did it give?
Answer: The IC50 was 1 to 99 nM.

Question: For `CCONC(=O)N1CCC2(CC1)Cc1cc(-c3ccc4ccnn4c3C)ccc1O2` [Example 169, N-Ethoxy-5-(7-methylpyrazolo[1,5-a]pyridin-6-yl)spiro[3H-benzofuran-2,4′-piperidine]-1′-carboxamide], which IC50 is on record?
Answer: The IC50 was 1000 to 10000 nM.

Question: For `Cc1nccc2cc(-c3cc4c(cc3F)OC3(CC4)CCN(C(N)=O)CC3)ccc12` [Example 234, 7-Fluoro-6-(1-methyl-6-isoquinolyl)spiro[chromane-2,4′-piperidine]-1′-carboxamide], which IC50 is on record?
Answer: The IC50 was 1000 to 10000 nM.

Question: Which IC50 does the source give for `Cc1c(-c2ccc3c(c2)CCC2(CCN(C(=O)NOC(C)C)CC2)O3)ccc2nccn12` [Example 108, N-Isopropoxy-6-(5-methylimidazo[1,2-a]pyridin-6-yl)spiro[chromane-2,4′-piperidine]-1′-carboxamide] here?
Answer: Its IC50 is 1 to 99 nM.

Question: How did the IC50 turn out when `O=C([C@H]1CCCO1)N1CCC2(CCc3cc(-c4ccccn4)ccc3O2)CC1` [Example 217, [6-(2-Pyridyl)spiro[chromane-2,4′-piperidine]-1′-yl]-[(2R)-tetrahydrofuran-2-yl]methanone, HCl] was run?
Answer: The IC50 was 1000 to 10000 nM.

Question: `Cc1c(-c2ccc3c(c2)CCC2(CCN(C(=O)NOC(C)C)CC2)O3)cnc2ccccc12` [Example 193, N-isopropoxy-6-(4-methyl-3-quinolyl)spiro[chromane-2,4′-piperidine]-1′-carboxamide] was tested. Which IC50 did it give?
Answer: Its IC50 is 1 to 99 nM.

Question: Which IC50 does the source give for `CCONC(=O)N1CCC2(CCc3cc(-c4ccc5cnc(C)cc5c4)ccc3O2)CC1` [Example 207, N-Ethoxy-6-(3-methyl-6-isoquinolyl)spiro[chromane-2,4′-piperidine]-1′-carboxamide] here?
Answer: The IC50 was 1 to 99 nM.

Question: With `CCNC(=O)N1CCC2(CC1)Cc1cc(-c3cnc4ccccc4c3C)ccc1O2` [Example 160, N-Ethyl-5-(4-methyl-3-quinolyl)spiro[3H-benzofuran-2,4′-piperidine]-1′-carboxamide] as the molecule, how does the IC50 read?
Answer: Its IC50 is 1000 to 10000 nM.

Question: How did the IC50 turn out when `Cc1c(-c2ccc3c(c2)CCC2(CCN(C(N)=O)CC2)O3)ccc2ccc(=O)[nH]c12` [Example 172, 6-(8-Methyl-2-oxo-1H-quinolin-7-yl)spiro[chromane-2,4′-piperidine]-1′-carboxamide] was run?
Answer: The IC50 was 1000 to 10000 nM.

Question: Which IC50 does the source give for `CC(C)ONC(=O)N1CCC2(CCc3cc(-c4ccc5nccn5c4Cl)ccc3O2)CC1` [Example 179, 6-(5-Chloroimidazo[1,2-a]pyridin-6-yl)-N-isopropoxy-spiro[chromane-2,4′-piperidine]-1′-carboxamide] here?
Answer: Its IC50 is 1 to 99 nM.

Question: Which IC50 does the source give for `O=C(C1CC1)N1CCC2(CCc3cc(-c4cccnc4)ccc3O2)CC1` [Example 222, Cyclopropyl-[6-(3-pyridyl)spiro[chromane-2,4′-piperidine]-1′-yl]methanone, HCl] here?
Answer: The IC50 was 1000 to 10000 nM.
